# Reference: article PMC9553667, “Pharmacokinetic Analysis of Diosgenin in Rat Plasma by a UPLC-MS/MS Approach” (Journal of Analytical Methods in Chemistry, 2022)
# Where two headings read alike, the source gives them in different places.
# Key:
# in vivo = assay: in vivo; parameters: species or system Male Sprague-Dawley rats; conditions: rat
# Protocol: Liquid chromatography was performed using a UPLC system (Waters Corp., Milford, MA, USA) interfaced to a Q-Trap 5500 triple-quadruple mass spectrometer (AB SCIEX, Beijing, China) equipped with an electrospray ionization (ESI) source, as previously described. The isolation was performed on a Waters ACQUITY UPLC BEH C18 rapid resolution high definition column (2.1 × 50 mm, 1.7 μm) at 35°C. The temperature of the UPLC autosampler was 4°C. The mobile phase was mixed with acetonitrile and water (80 : 20, v/v, containing 0.03% formic acid in water). The flow rate was run at 0.3 ml/min. The injection volume was 2 μl, with a total running time of 5 min.
# The positive ion multiple reaction monitoring (MRM) mode was used for quantification analysis in the mass analyzers, with the transitions of m/z 415.2⟶271.2 for diosgenin with fragment or voltage of 71.96 V and 295.2⟶277.1 for the IS with fragment or voltage of 120 V. The collision voltages for diosgenin and IS were 23.03 and 25.92 eV, respectively. The other settings were as follows: capillary voltage, 5.5 kV; source temperature, 500°C; curtain gas, 35 Psi; GS1, 50 Psi; GS2, 50 Psi.
# Blank plasma samples were obtained from control Sprague-Dawley rats (n = 6). Briefly, 50 μl of the IS solution and 50 μl of plasma were added to a 0.5-ml Eppendorf tube and vortex mixed for 30 s. Methanol-acetonitrile (250 μl; 50 : 50, v/v) was added to the Eppendorf tube, and then, the sample was vortex mixed for 2 min. After centrifuging at 15,000 rpm for 15 min, the supernatants were injected into the UPLC-MS/MS system.
# Male Sprague-Dawley rats (n = 12) weighing 180–220 g were supplied by Beijing Vital River Laboratory Animal Technology Co., Ltd. (Beijing, China; license number SCXK2018-0006). According to the ARRIVE guidelines, all experimental rats were kept under appropriate conditions, including proper humidity, temperature, light, diet, and water. Before starting the experiments, the rats were domesticated for 10 days under laboratory conditions to minimize their suffering. All experimental procedures were performed according to the Animal Care and Use Committee of Chengde Medical University (ethical approval no. CDMULAC-20180410016; Chengde, China). The rats were divided into two groups and were orally administered 100 mg/kg diosgenin and ASD (equivalent to 100 mg/kg diosgenin) suspended in a 0.5% w/v CMC–Na aqueous solution.
# The caged rats were fasted (water provided ad libitum) for 12 h before the experiment. Before and after single administration of diosgenin, 0.15 ml blood was collected from the inner canthus under 2.5% isoflurane anesthesia in a heparinized blood collection vessel. The blood collection time points were 0.083, 0.25, 0.5, 0.75, 1, 2, 3, 4, 6, 8, 12, 24, 36, 48, and 72 h. Plasma was obtained after centrifugation for 15 min at 15,000 rpm and then stored at –80°C until analysis.
# The pharmacokinetic parameters were calculated using noncompartmental pharmacokinetics data analysis software of DAS 3.0 (Drug and Statistics software, Drug Clinical Research Center, Shanghai University of Traditional Chinese Medicine, Shanghai, China). Relative bioavailability (F) was calculated according to the following formula:(1) F%=AUC0⟶∞diosgenin ASD/AUC0⟶∞diosgenin×100%.
# [1] = format: in vitro ADME, rat; conditions: n = 6; for Measured concentration, autosampler stability: processed rat plasma, autosampler 4°C for 24 h; for Measured concentration, short-term stability / Measured concentration, freeze-thaw stability / Measured concentration, long-term stability: rat plasma; for Measured concentration, short-term stability: 25°C for 8 h; for Measured concentration, long-term stability: −20°C for 30 days
# Protocol: Standard working solutions of diosgenin and IS were prepared by diluting stock solutions (100 μg/ml) with methanol. A series of calibration standards and QC working solutions were serially diluted with methanol from the standard solution. The working solutions were diluted with drug-free rat plasma at concentrations of 0.5, 1, 5, 50, 200, 1000, and 1,500 ng/ml. Similarly, the QC samples were made up at 5, 50, and 1,000 ng/ml, and IS was 42 ng/ml. All samples were immediately stored at −20°C.
# QC samples in rat plasma at three concentrations were analyzed by assessing the stability of diosgenin under four conditions. Long-term stability was investigated by assaying QC samples kept at −20°C for 30 days. The short-term stability of QC samples was assessed for 8-h storage at 25°C. Freeze-thaw stability was determined by analyzing QC samples after three freeze-thaw cycles (−40°C to 25°C). Postpreparative stability was evaluated after a 24-h placement of QC samples in an autosampler at 4°C after preparation. When the accuracy and the precision were both within ±15% after the four tests, the stabilities were guaranteed.
# [2] = format: in vitro ADME, rat; conditions: –20°C for 30 days, 25°C for 8 h, three freeze-thaw cycles, 4°C in an autosampler for 12 h
# [3] = parameters: method as in PMID 24954725; conditions: rats; cited from earlier work
# [4] = parameters: method as in PMID 23073665, PMID 20671764; conditions: cited from earlier work
# [5] = male, Sprague-Dawley, po, 100 mg/kg
smiles,measurement,setting,value
C[C@@H]1CC[C@@]2(OC1)O[C@H]1C[C@H]3[C@@H]4CC=C5C[C@@H](O)CC[C@]5(C)[C@H]4CC[C@]3(C)[C@H]1[C@@H]2C [Diosgenin],CL/F,"in vivo; male, Sprague-Dawley, oral, 100 mg/kg diosgenin or equivalent, mean ± SD, n = 6, read-out: CLz/F (converted)",12.4 L/h/kg
same,Vd/F,"in vivo; male, Sprague-Dawley, oral, 100 mg/kg diosgenin or equivalent, mean ± SD, n = 6, read-out: Vz/F",231 ± 161 L/kg
same,half-life,"in vivo; male, Sprague-Dawley, oral, 100 mg/kg diosgenin or equivalent, mean ± SD, n = 6, read-out: t1/2z (converted)",12.3 ± 3.02 h
same,Cmax,in vivo; [5],0.48 ± 0.121 µg/mL
same,MRT last,in vivo; [5],22.8 ± 5.55 h
same,Tmax,in vivo; [5],8.73 ± 5.74 h
same,AUC0-t,"in vivo; po, 100 mg/kg","9,302.27 ± 5,013.38 μg/l∗h"
same,AUC0-∞,"in vivo; po, 100 mg/kg","9,598.01 ± 5,151.91 μg/l∗h"
same,"Measured concentration, autosampler stability",[1]; indicated 5 ng/ml,5.32 ± 0.37 ng/mL
same,"Measured concentration, autosampler stability",[1]; indicated 50 ng/ml,50.59 ± 3.69 ng/mL
same,"Measured concentration, autosampler stability",[1]; indicated 1000 ng/ml,1001.01 ± 62.63 ng/mL
same,"Measured concentration, short-term stability",[1]; indicated 5 ng/ml,5.41 ± 0.33 ng/mL
same,"Measured concentration, short-term stability",[1]; indicated 50 ng/ml,50.23 ± 2.56 ng/mL
same,"Measured concentration, short-term stability",[1]; indicated 1000 ng/ml,1000.88 ± 44.34 ng/mL
same,"Measured concentration, freeze-thaw stability","[1]; three freeze-thaw cycles (−40°C to 25°C), indicated 5 ng/ml",5.98 ± 0.35 ng/mL
same,"Measured concentration, freeze-thaw stability","[1]; three freeze-thaw cycles, indicated 50 ng/ml",51.69 ± 4.36 ng/mL
same,"Measured concentration, freeze-thaw stability","[1]; three freeze-thaw cycles, indicated 1000 ng/ml",1002.9 ± 54.44 ng/mL
same,"Measured concentration, long-term stability",[1]; indicated 5 ng/ml,5.99 ± 0.28 ng/mL
same,"Measured concentration, long-term stability",[1]; indicated 50 ng/ml,50.02 ± 3.72 ng/mL
same,"Measured concentration, long-term stability",[1]; indicated 1000 ng/ml,1001.65 ± 42.42 ng/mL
same,Stability in plasma under the storage conditions,[2],remained stable
same,Absolute bioavailability,[3],approximately 7%
same,Aqueous solubility,[4],poor aqueous solubility
